One block for each substance: values may come before it. Where no end group is shown, it is not given here.
What was measured:
Type in all cases: biochemical, rat
somatostatin convertase [1] = assay: Conversion of iodine-125-labeled peptide I by brain extracts, specific activity (% of peptide II generated); settings: molecular sieve fraction, peptide I (20,000 cpm), 2 hours, % of starting materials
Experimental: (§1) Male Wistar rats (100-120 g) were sacrificed by quick decapitation and the cerebral cortex was removed immediately. The fresh dissected tissue was homogenized in a Potter Elvehjem apparatus in a buffer solution of phosphate (pH 7.4) at a concentration of 50 mM and potassium chloride at a concentration of 200 mM (5 ml of buffer per cortex).
(§2) The extract was then centrifuged at 3000×g for 15 minutes and the supernatant was filtered on a Sephadex G-150 column in 0.25M Tris-HCl (pH 7).
(§3) The proteolytic activities were tested in the following way. The peptide I labeled with iodine 125 (20,000 cpm), dissolved in 10 μl of 250 mM Tris-HCl (pH 7), was incubated at 37° C. with an aliquot either of crude extract of rat cerebral cortex or of fractions derived from gel filtration or derived from ion exchange chromatography (final volume of 300 μl in 0.25M Tris-HCl (pH 7)).
(§4) 50 μl samples of the mixture were taken at different times during the reaction and the reaction was stopped by the addition of 600 μl of CM-52 resin in 30 mM ammonium acetate (pH 6) (1:10, vol./vol.). The mixture was then centrifuged at 10,000×g for 30 seconds on a Beckman microcentrifuge. […] After the second washing by elution at each of its saline concentrations, the iodinated products retained on the resin were counted.
(§5) The results were calculated as follows: [formula] where the specific activity represents the percentage of peptides II generated, the undesirable activity represents the percentage of Asn-^125 I-Tyr(NH2) generated, t is the total cpm in 50 μl of the mixture, x1 is the cpm found after washing with the 30 mM ammonium acetate, x2 is the cpm found after washing with the 100 mM ammonium acetate, and y1 and y2 are the cpm values found respectively after the 30 mM and 100 mM washings of the resin with the peptide I by itself.
(§6) The extracts were obtained from three regions of the brain and were fractionated by filtration on a molecular sieve. A 50 μl aliquot corresponding to an activity peak was incubated with the peptide I (20,000 cpm) for 2 hours and the products were analyzed by ion exchange.

undesirable activity = assay: Conversion of iodine-125-labeled peptide I by brain extracts, undesirable activity (% of Asn-^125 I-Tyr(NH2) generated); settings: molecular sieve fraction, peptide I (20,000 cpm), 2 hours, % of starting materials
Experimental: as §1, §2, §3, §4, §5, §6

somatostatin convertase [2] = assay: Competition of peptides with iodinated peptide I in the enzymatic conversion by somatostatin convertase; settings: 1 μl of each peptide or 2 μg of somatostatin 28; ^125 I peptide I (30,000 cpm), pH 7, 37° C., 2 hours; 0% = maximum conversion of peptide I to peptide II
Experimental: The ability of several analogous peptides to compete with the peptide I in the enzymatic conversion was evaluated by means of competition experiments. The results given in the table which follows indicate that either the peptide of 28 AA (S-28) or the noniodinated substrate of II AA (deiodinated peptide I) competed effectively (75% and 85% respectively) with the iodinated peptide I. It is interesting to observe that simple replacement of Lys with Arg in the dibasic doublet (cleavage site) produced a peptide III, which competed with the iodinated substrate (peptide I) with an efficacy of only 30%.
The enzyme prepared from the Sephadex G150 column was incubated in a
mixture containing either 1 μl of each of the peptides described above
or 2 μg of somatostatin 28 and ^125 IPeptide I (30,000 cpm) in a
buffer solution of TrisHCl (pH 7) at 37° C. for 2 hours. 0%
inhibition corresponds to a maximum conversion of the peptide I to the […]

% of products generated, Peptide II labeled with 125I (somatostatin convertase [1]; Hypothalamus extract): 7%
% of products generated, Peptide II labeled with 125I (somatostatin convertase [1]; Neocortex extract): 18%
% of products generated, Peptide II labeled with 125I (somatostatin convertase [1]; Pituitary gland extract): 20%
Substance: Ala-Gly-Ala-Lys-Asn-Tyr(NH2)* [Peptide II]

Substance: Asn-^125 I-Tyr(NH2)
% of products generated, Asn-^125 I-Tyr(NH2) (undesirable activity; Hypothalamus extract): 90%
% of products generated, Asn-^125 I-Tyr(NH2) (undesirable activity; Neocortex extract): 40%
% of products generated, Asn-^125 I-Tyr(NH2) (undesirable activity; Pituitary gland extract): 37%

% inhibition of the conversion activity (competition with iodinated peptide I) (somatostatin convertase [2]): 85%
Substance: PRERKAGAKNY-NH2 [De^125 IPeptide I]

Substance: Somatostatin 28: direct precursor of somato 14, a peptide consisting of 28 AA [reference compound]
% inhibition of the conversion activity (competition with iodinated peptide I) (somatostatin convertase [2]): 75%
